Laboratory results: patent US12338199B2, “Bis-octahydrophenanthrene carboxamides and protein conjugates thereof” (REGENERON PHARMACEUTICALS, INC., priority 2017, dated 2025)
Counter-ions that a name gives are not always drawn. Like-named read-outs stand apart in the source and are kept apart here.

Assays:
LXR alpha = molecular target: T1, LXR alpha (Homo sapiens, UniProt Q13133); assay: LanthaScreen TR-FRET LXR alpha Coactivator Assay (cell-free binding)
T1 construct: LXR alpha or beta LBD-GST; purchased ThermoFisher PV4655
T1 sequence (Q13133 209-447 limits assumed): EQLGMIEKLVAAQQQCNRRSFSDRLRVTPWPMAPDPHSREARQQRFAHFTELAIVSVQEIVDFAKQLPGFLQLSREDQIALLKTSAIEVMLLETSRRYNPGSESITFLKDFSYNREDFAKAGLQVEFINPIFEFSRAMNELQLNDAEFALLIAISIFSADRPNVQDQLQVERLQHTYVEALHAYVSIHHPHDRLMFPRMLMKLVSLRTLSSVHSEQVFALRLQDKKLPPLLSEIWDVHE
Description: (§1) To evaluate the ability of novel LXR agonists to bind to the LXR alpha and beta receptor, a cell-free binding assay was performed using a LanthaScreen TR-FRET LXR alpha Coactivator Assay Kit (ThermoFisher, Cat # PV4655) and LXR beta Coactivator Assay Kit (ThermoFisher, Cat # PV4658). The assay was performed according to the manufacturer's instructions. Briefly, a 3-fold serial dilution of LXR agonists were prepared in 100% DMSO starting at 100 μM (100× of final). Serial dilutions were further diluted 50-fold in nuclear receptor buffer F with 5 mM DTT, and transferred to a 384-well assay plate. Next, Fluorescein-D22, LXR alpha or beta LBD-GST, and Tb anti-GST antibody was sequentially added to 384-well assay plate. The plate was then incubated at rt for 2.5 hours while being protected from light. […] The IC50 values were determined using a four-parameter logistic equation over a 12-point response curve (GraphPad Prism).

LXR beta = molecular target: T2, LXR beta (Homo sapiens, UniProt P55055); assay: LanthaScreen TR-FRET LXR beta Coactivator Assay (cell-free binding)
T2 construct: LXR alpha or beta LBD-GST; purchased ThermoFisher PV4658
T2 sequence (P55055 222-460 limits assumed): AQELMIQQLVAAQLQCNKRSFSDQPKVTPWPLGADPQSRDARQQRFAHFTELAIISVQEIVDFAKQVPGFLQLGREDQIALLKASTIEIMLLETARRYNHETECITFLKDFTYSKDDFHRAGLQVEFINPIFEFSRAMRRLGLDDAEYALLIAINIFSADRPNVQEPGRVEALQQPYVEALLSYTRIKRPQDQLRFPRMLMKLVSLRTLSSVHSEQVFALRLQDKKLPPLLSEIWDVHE
Description: as §1

THP1/LXR-Luc cells [1] = assay: THP1/LXR-Luc luciferase reporter bioassay; type: cell-based; details: Homo sapiens, THP-1, 48 hours; for EC50: read-out: Activation of THP1/LXR-Luc cells: EC50; for Emax: relative to maximum activation of free payload 9d, read-out: Activation of THP1/LXR-Luc cells: Fold of activation
Text: The fold activation in the cell-based assays (as described in Example 68, below) was defined based on the maximum activation of the free payload 9d.
(§2) A bioassay was developed to assess the activity of LXR agonists after internalization of an agonist or of a ncADC into cells and binding to LXR, a nuclear receptor, using a commercially available LXR reporter (referred to as LXR-Luc) that contains the firefly luciferase gene under control by minimal CMV promoter and tandem repeats of the LXR transcriptional response element. For this assay, a THP1 cell line, which is a human monocytic leukaemia line, was engineered to express full length human Her2 (expressing amino acids M1 through V1255 of accession number NP_004439.2). The subsequent stable cell line was further transduced with a Cignal LXR Luc Reporter (Qiagen, Cat # CLS-7041L). The resulting stable cell line is referred to herein as THP1/Her2/LXR-Luc. The Her2 cell surface expression on THP1/Her2/LXR-Luc cell line was confirmed by FACS (data not shown).
Additionally, a THP1 cell line was transduced with a Cignal LXR Luc Reporter (Qiagen, Cat # CLS-7041L) without the addition of Her2. The resulting stable cell line is referred to herein as THP1/LXR-Luc. All of the antibodies used in the subsequent bioassays were assessed for their ability to internalize and release a payload on the bioassay cell line used.
(§3) This example assessed the ability of the LXR agonists provided herein, reference compounds, and anti-Her2 antibody-LXR ncADC to activate LXR. The samples were tested in the THP1/LXR-Luc/Her2 bioassay. For the assay, either THP1/LXR-Luc cells or THP1/LXR-Luc/Her2 cells were seeded onto white 96 well plates at 30,000 cells/well in media containing RPMI supplemented with 10% FBS and pencillin/streptomycin (complete media). Subsequently 3-fold serial dilutions of antibody drug conjugates, unconjugated antibodies, or free payloads were added to the cells at final concentration ranging from 100 nM to 0.01 nM. After 48-hour or 72-hour incubation, luciferase activity was determined after the addition of One-Glo™ reagent (Promega, Cat # E6130) to each well of cells. Relative light units (RLUs) were measured on a Victor luminometer (PerkinElmer) and the EC5o values were determined using a four-parameter logistic equation over a 10-point dose response curve (GraphPad Prism) (FIG. 15). The fold activation is calculated based on the maximum activation of the free payload 9d.

THP1/LXR-Luc/Her2 cells = assay: THP1/LXR-Luc/Her2 luciferase reporter bioassay; type: cell-based; details: Homo sapiens
Text: as §2, §3

THP1/LXR-Luc cells [2] = assay: LXR-luciferase reporter bioassay in PMA-differentiated THP1/LXR-Luc cells; type: cell-based, human; details: for EC50: Homo sapiens, THP-1, 48 h, read-out: EC50; for S/N (signal to noise, ratio of RLU of standard one over RLU of standard eight): luciferase activity
Text: To test the efficacy of anti-MSR1 antibody-LXR conjugates in vitro, a cell-based LXR responsive luciferase reporter assay was developed. To generate the assay cell line, a LXR regulated luciferase reporter gene [Cignal Lenti LXR Reporter (luc) kit (Qiagen, Cat # CLS-001L)] was transduced into THP1 cells, and cells were selected for two weeks in puromycin. The lentivirus expresses the firefly luciferase gene under the control of a minimal CMV promoter and tandem repeats of the LXR transcriptional response element. The resulting cell line is referred to as THP1/LXR-Luc cells.
THP1/LXR-Luc cells were seeded onto 96 well plates at 40,000 cells/well in media containing RPMI supplemented with 10% FBS and pencillin/streptomycin and subsequently differentiated with 200 nM Phorbol Myristate Acetate (PMA) for 3 days. After the 3-day differentiation period, three-fold serial dilutions of antibody drug conjugates, unconjugated antibodies, or free payloads in fresh media were added to the cells at final concentration ranging from 100 nM to 0.01 nM. Media alone served as a blank control. Forty-eight hours later, luciferase activity was determined after the addition of One-Glo™ reagent (Promega, Cat # E6130) to each well. Relative light units (RLUs) were measured on a Victor luminometer (PerkinElmer) and EC50 values were determined using a four-parameter logistic equation over a 10-point dose response curve (GraphPad Prism). The signal to noise (S/N) was determined by calculating the ratio of RLU of standard one over RLU of standard eight for each of the unconjugated anti-MSR1 antibodies or free payloads. “LP #” represents a linker-payload for which the corresponding structures are provided elsewhere herein, and “P #” represents a payload for which the corresponding structures are provided elsewhere herein.

[3] = Water solubility and pH stability of phosphate analogs; type: physicochemical; details: pH as given in the value; 17c converted to 17b in the presence of methanol
Text: The phosphoric acid-analog 17a was obtained from the treatment of phenol 9g with diphosphoryl chloride 18. Compounds 17b and 17c were obtained from the acidic deprotection of 17a with TFA.

[4] = TR-FRET, 12-point curve, read-out: Cell free binding LXRα IC50
[5] = TR-FRET, 12-point curve, read-out: Cell free binding LXRβ IC50
[6] = 48-hour time point, stimulation of THP1/Luc cells
[7] = PMA-differentiated THP1/LXR-Luc cells, 48 hours, luciferase activity (One-Glo), 10-point dose response 100 nM to 0.01 nM
[8] = PMA-differentiated THP1/LXR-Luc cells, 48 hours

SMILES | IC50 (LXR alpha; [4]) [nM] | IC50 (LXR beta; [5]) [nM] | EC50 (THP1/LXR-Luc cells [1]) [nM] | Emax (THP1/LXR-Luc cells [1]) [%] | EC50 (THP1/LXR-Luc/Her2 cells; THP-1, 48 h, 48-hour time point) [nM] | EC50 (THP1/LXR-Luc/Her2 cells; THP-1, 48 h, 48 hours, unit inferred, values correspond to M) [nM] | EC50 (THP1/LXR-Luc/Her2 cells; THP-1, 72 h, 72-hour time point) [nM] | EC50 (THP1/LXR-Luc/Her2 cells; THP-1, 72 h, 72 hours) [nM] | EC50 (THP1/LXR-Luc cells [2]; [6]) [nM] | EC50 (THP1/LXR-Luc cells [2]; [7]) [nM] | S/N (signal to noise, ratio of RLU of standard one over RLU of standard eight) (THP1/LXR-Luc cells [2]; [8]) | Stability [3] | IC50 (LXR alpha) [nM] | IC50 (LXR beta) [nM]
C[C@]1(C(=O)NC(=O)[C@@]2(C)CCC[C@]3(C)c4cc(NC(=O)[C@@H](N)CO)ccc4CC[C@@H]23)CCC[C@]2(C)c3cc(O)ccc3CC[C@@H]12 [Compound 9j, (1S,4aS,10aR)-6-((S)-2-Amino-3-hydroxypropanamido)-N-((1S,4aS,10aR)-6-hydroxy-1,4a-dimethyl-1,2,3,4,4a,9,10,10a-octahydrophenanthrene-1-carbonyl)-1,4a-dimethyl-1,2,3,4,4a,9,10,10a-octahydrophenanthrene-1-carboxamide] | < 10 | < 10 | ≤ 1 | > 75 | 0.39 | 0.39 | 0.47 | 0.47 | 0.37 to 2.09 | 0.46 | 5.7 | – | – | –
C[C@]1(C(=O)NC(=O)[C@@]2(C)CCC[C@]3(C)c4cc(NC(=O)[C@@H](N)CCCCN)ccc4CC[C@@H]23)CCC[C@]2(C)c3cc(O)ccc3CC[C@@H]12 [Compound 9l, (1S,4aS,10aR)—N-[(1S,4aS,10aR)-6-Hydroxy-1,4a-dimethyl-1,2,3,4,4a,9,10,10a-octahydrophenanthrene-1-carbonyl]-6-[(2S)-2,6-diaminohexanamido]-1,4a-dimethyl-1,2,3,4,4a,9,10,10a-octahydrophenanthrene-1-carboxamide; Trifluoroacetic Acid Salt] | 10 to 100 | 10 to 100 | 1 to 10 | > 75 | – | – | – | – | 0.37 to 2.09 | 2.09 | 8.9 | – | – | –
C[C@]1(C(=O)NC(=O)[C@@]2(C)CCC[C@]3(C)c4cc(NC(=O)[C@@H](N)CCC(=O)O)ccc4CC[C@@H]23)CCC[C@]2(C)c3cc(O)ccc3CC[C@@H]12 [Compound 9o, (4S)-4-Amino-4-{[(4bS,8S,8aR)-8-{[(1S,4aS,10aR)-6-hydroxy-1,4a-dimethyl-1,2,3,4,4a,9,10,10a-octahydrophenanthrene-1-carbonyl]carbamoyl}-4b,8-dimethyl-4b,5,6,7,8,8a,9,10-octahydrophenanthren-3-yl]carbamoyl}butanoic acid; Trifluoroacetic Acid Salt] | 10 to 100 | < 10 | ≤ 1 | > 75 | – | – | – | – | 0.37 to 2.09 | 0.37 | 8.3 | – | – | –
C[C@]1(C(=O)NC(=O)[C@@]2(C)CCC[C@]3(C)c4cc(NC(=O)CCCC(=O)O)ccc4CC[C@@H]23)CCC[C@]2(C)c3cc(O)ccc3CC[C@@H]12 [Compound 9q, 4-{[(4bS,8S,8aR)-8-{[(1S,4aS,10aR)-6-Hydroxy-1,4a-dimethyl-1,2,3,4,4a,9,10,10a-octahydrophenanthrene-1-carbonyl]carbamoyl}-4b,8-dimethyl-4b,5,6,7,8,8a,9,10-octahydrophenanthren-3-yl]carbamoyl}butanoic Acid] | < 10 | < 10 | 10 to 100 | > 75 | – | – | – | – | – | – | – | – | – | –
C[C@]1(C(=O)NC(=O)[C@@]2(C)CCC[C@]3(C)c4cc(NC(=O)CNCC(=O)O)ccc4CC[C@@H]23)CCC[C@]2(C)c3cc(O)ccc3CC[C@@H]12 [Compound 9r, 2-[({[(4bS,8S,8aR)-8-{[(1S,4aS,10aR)-6-Hydroxy-1,4a-dimethyl-1,2,3,4,4a,9,10,10a-octahydrophenanthrene-1-carbonyl]carbamoyl}-4b,8-dimethyl-4b,5,6,7,8,8a,9,10-octahydrophenanthren-3-yl]carbamoyl}methyl)amino]acetic Acid; Trifluoroacetic Acid Salt] | < 10 | < 10 | 10 to 100 | > 75 | – | – | – | – | – | – | – | – | – | –
COP(=O)(O)Oc1ccc2c(c1)[C@@]1(C)CCC[C@](C)(C(=O)NC(=O)[C@@]3(C)CCC[C@]4(C)c5cc(N)ccc5CC[C@@H]34)[C@@H]1CC2 [Compound 17b, (4bS,8S,8aR)-8-((1S,4aS,10aR)-6-Amino-1,4a-dimethyl-1,2,3,4,4a,9,10,10a-octahydrophenanthrene-1-carbonylcarbamoyl)-4b,8-dimethyl-4b,5,6,7,8,8a,9,10-octahydrophenanthren-3-yl methyl hydrogen phosphate] | – | – | 10 to 100 | > 75 | – | – | – | – | – | – | – | stable at pH 5-8 | 10 to 100 | < 10
O=C(O)Cc1cccc(OCCCN(Cc2cccc(C(F)(F)F)c2Cl)CC(c2ccccc2)c2ccccc2)c1 [GW3965] | < 10 | < 10 | > 100 | > 75 | – | – | – | – | – | – | – | – | – | –
